Counter-ions that a name gives are not always drawn.
Columns and labels:
B16F10 = test: CellTiter-Glo cell viability assay (example 57); format: cell-based, human; settings: Mus musculus, B16-F10; B16F10 (Melanoma); Cell Titer-Glo; 72 h
SK-MEL-5 = test: EC50 determination in cancer cell lines; format: cell-based; settings: Homo sapiens, 72 h
Protocol: (§1) Compounds were added at different concentrations to each well, and cell cultures were incubated for 72 h. Vehicle (DMSO or H2O) was used as a control, and all compounds were tested in a constant percentage of vehicle. Cell outgrowth was measured using for adherent cells CellTiter […] Aqueous One Solution Cell Proliferation Assay (Promega) and for cell suspension, Sulforhodamine B colorimetric assay as described in Vichai et al. (Vichai, V. and Kirtikara, K. Nat. Protoc. 2006 (1) 1112-1116). Absorbance was measured using an Infinite F200 Pro or Sunrise TECAN plate reader.
(§2) The human melanoma cell line A375, colorectal carcinoma cell line HCT-116, hepatocellular carcinoma cell line HepG2 were cultured in Dulbecco's modified Eagle's medium supplemented with 10% fetal bovine serum and 1% Penicillin-Streptomycin. The human melanoma cell lines SK-MEL-28 and SK-MEL-5 were cultured in Minimum Essential Medium. The colorectal carcinoma cell lines HT-29 and Colo205 were respectively cultured in Mc Coy's and RPMI media. The human leukemia cell lines MV4-11 and KG-1 were cultured in Iscove's Modified Dulbecco's Media. The human leukemia cell line MOLM-14 was cultured in Minimum Essential Medium Alpha Medium supplemented with 10% Fetal Bovine Serum and 1% Penicillin-Streptomycin All culture media were supplemented with 10% fetal bovine serum and 1% Penicillin-Streptomycin except for MV4-11 cell line 20% fetal bovine serum and 1% Penicillin-Streptomycin. All the cell lines were maintained at 37° C. with 5% C02.
(§3) Briefly, adherent cells, A375, HCT-116, HepG2, SK-MEL-28, SK-MEL-5, HT-29 and Colo205 cells were respectively plated at 800, 5,000, 7,000, 2,500, 3,000-5,000, 5,000 or 5,000 cells per well onto 96-well plates in 90 μL of media per well and were allowed to grow overnight before the assay. For MV4-11 and KG-1 cells that grow in suspension, 40,000-60,000 cells were plated onto 96-well plates immediately before the assay. MOLM-14 cell line, that grow in suspension, 30,000 cells were plated onto 96-well plates immediately before the assay.
(§4) The cell growth measure was the same as described in example 51.
(§5) The experimental data are analyzed using a computer program, Graphpad Prism (GraphPad Software, Inc. La Jolla, Calif.) and EC50 values were determined as the dose of compound required to reduce absorbance values to 50% of the signal obtained for vehicle treated cell cultures and were a mean of at least two independent experiments except for EC50 values with (*) where […].

SK-MEL-28 = test: EC50 determination in cancer cell lines; format: cell-based; settings: Homo sapiens, 72 h
Protocol: as §1, §2, §3, §4, §5

MOLM-14 [1] = test: EC50 determination in cancer cell lines; format: cell-based; settings: Homo sapiens, 72 h
Protocol: as §1, §2, §3, §4, §5

MV4-11 = test: EC50 determination in cancer cell lines; format: cell-based; settings: Homo sapiens, 72 h
Protocol: as §1, §2, §3, §4, §5

KG-1 = test: EC50 determination in cancer cell lines; format: cell-based; settings: Homo sapiens, 72 h
Protocol: as §1, §2, §3, §4, §5

MOLM-14 [2] = test: Cell proliferation assay at 10 μM; format: cell-based, human; settings: Homo sapiens, MOLM-14, 72 h, read-out: Cell viability observed at 10 μM
Protocol: (§6) The human melanoma cell line A375 and colorectal carcinoma cell line HCT-116 were cultured in Dulbecco's modified Eagle's medium supplemented with 10% fetal bovine serum and 1% Penicillin-Streptomycin. The human leukemia cell line MOLM-14 was cultured in Minimum Essential Medium Alpha Medium supplemented with 10% Fetal Bovine Serum and 1% Penicillin-Streptomycin. All the cell lines were maintained at 37° C. with 5% CO2.
For MOLM-14 cell line, which grows in suspension, 30,000 cells were plated onto 96-well plates immediately before the assay.
as §1
(§7) In each experiment, each point represents the average of two replicates in cell culture.
(§8) Results are presented in Table 1 below for concentrations of 10 μM of tested compounds.

HCT-116 [3] = test: Cell proliferation assay at 10 μM; format: cell-based; settings: Homo sapiens, HCT-116, 72 h, read-out: Cell viability observed at 10 μM
Protocol: as §6
(§9) Briefly, adherent cells, A375 and HCT-116 cells were respectively plated at 800 or 5,000 cells per well onto 96-well plates in 90 μL of media per well and were allowed to grow overnight before the assay.
as §1, §7, §8

A375 = test: Cell proliferation assay at 10 μM; format: cell-based, human; settings: Homo sapiens, A-375, 72 h, read-out: Cell viability observed at 10 μM
Protocol: as §6, §9, §1, §7, §8

[4] = tested on: patient derived acute myeloid leukemia (AML) cell lines; test: Cell growth inhibition assay, patient derived AML cells; format: cell-based, human; settings: Homo sapiens, 48 h
Protocol: The patient derived acute myeloid leukemia (AML) cells were obtained after written informed consent under the Institut Paoli Calmette (IPC) institutional review board approval and under the strict compliance of the Helsinki declaration on medical research involving human subjects. […] Each compound was added at different concentrations (combinations of six concentrations) to each well, and cell cultures were incubated for 48 h. Vehicle (H2O) was used as a control, and all compounds were tested in a constant percentage of vehicle. Cell outgrowth was measured using the CellTiter-Glo luminescent cell viability assay as described by the manufacturer (Promega, Ref G7571 Madison, Wis., USA) using a Centro (Berthold, France) plate reader. In each experiment, each point represents the average of triplicates in cell culture. The experimental data are analyzed using a computer program, Graphpad Prism (GraphPad Software, Inc.

HCT-116 [5] = test: EC50 determination in cancer cell lines; format: cell-based, human; settings: Homo sapiens, HCT-116, 72 h
Protocol: as §1, §2
Briefly, adherent cells, A375, HCT-116, HepG2, SK-MEL-28, SK-MEL-5, HT-29 and Colo205 cells were respectively plated at 800, 5,000, 7,000, 2,500, 3,000-5,000, 5,000 or 5,000 cells per well onto 96-well plates in 90 μL of media per well and were allowed to grow overnight before the assay. For MV4-11 and KG-1 cells that grow in suspension, 40,000-60,000 cells were plated onto 96-well plates immediately before the assay. MOLM-14 cell line, that grow in suspension, 30,000 cells were plated onto 96-well plates immediately before the assay. […]
as §5

A-375 = test: EC50 determination in cancer cell lines; format: cell-based, human; settings: Homo sapiens, A-375, 72 h
Protocol: as §1, §2, §3, §4, §5

[6] = tested on: PBMC Healthy voluntary donor; test: Cell growth inhibition assay, PBMC of healthy donors; format: cell-based, human; settings: Homo sapiens, PBMC
Protocol: Each compound was added at different concentrations (combinations of six concentrations) to each well, and cell cultures were incubated for 48 h. Vehicle (H2O) was used as a control, and all compounds were tested in a constant percentage of vehicle. Cell outgrowth was measured using the CellTiter-Glo luminescent cell viability assay as described by the manufacturer (Promega, Ref G7571 Madison, Wis., USA) using a Centro (Berthold, France) plate reader. In each experiment, each point represents the average of triplicates in cell culture. The experimental data are analyzed using a computer program, Graphpad Prism (GraphPad Software, Inc.

[7] = Encapsulation efficiency of XIX-2 in PLGA-PLGAPEG nanoparticules (HPLC); format: physicochemical
Protocol: According to the general procedure described elsewhere (see for example Kumar, K. et al. J. Controlled Release 2013 (171) pp 208-215 and Danhier, F. et al. Int. J. Pharm. 2010 (392) pp 20-28) a nanoparticule PLGA-PLGAPEG (70/30, w/w) formulation of compound XIX-2 was prepared. Briefly, XIX-2 loaded PLGA (L:G 50:50, Mw 7,000-17,000, acid terminated) and PLGA-PEG (L:G 50:50, 15% of PEG, PLGA Mw 28,000; PEG Mw 5,000) nanoparticles were prepared by O/W emulsion-solvent evaporation technique. 35 mg of PLGA polymer and 15 mg of PLGA-PEG polymer was dissolved in 1 ml of a solution of XIX-2 in dichloromethane (10 mg/ml) and vortexed to obtain a uniform PLGA-PLGAPEG solution. Then, 2 ml of a 1% sodium cholate aqueous solution was added and the resulting biphasic system was sonicated (Branson sonifier, USA) at 70 W for 15 s. This emulsion was added dropwise to 100 ml of a 1% sodium cholate aqueous solution at 37° C. and stirred at 600 rpm for 1 h. The nanoparticle suspension was then washed twice in distilled water by centrifugation (Avanti-JE centrifuge, Beckman coulter, USA) for 60 min at 10,000 t·min^−1 and 4° C. Supernatants were collected to evaluate encapsulation efficiency of XIX-2. Empty nanoparticles were prepared with the same procedure except the addition of XIX-2 during the preparation of the formulation. The particles can be stored in solution at +4° C. or then freeze dried (Labconco, USA) and stored at 4° C. until further use.
Encapsulation efficiency estimated the amount of XIX-2 encapsulated in PLGA-PLGAPEG nanoparticules. Supernatants were used to measure the non-encapsulated XIX-2. Nanoparticules were dissolved in 1 ml of mobile phase to evaluate the encapsulated XIX-2. An HPLC system (Waters Breeze) with a diode array detector and multiple wavelength detector was used for the quantification of XIX-2 in supernatants and nanoparticles. […]
The coefficients of variation (CV) for intra- and inter-assay measurements were within 5%. The encapsulation efficiency of XIX-2 is given by [XIX-2 used−XIX-2 non-encapsulated)/XIX-2 used]×100 and XIX-2 recovery was calculated.

Colo205 = test: EC50 determination in cancer cell lines; format: cell-based; settings: Homo sapiens, COLO 205, 72 h, * n>2
Protocol: as §1, §2, §3, §4, §5

HT-29 = test: EC50 determination in cancer cell lines; format: cell-based; settings: Homo sapiens, 72 h, * n>2
Protocol: as §1, §2, §3, §4, §5

HepG2 = test: EC50 determination in cancer cell lines; format: cell-based, human; settings: Homo sapiens, HepG2, 72 h
Protocol: as §1, §2, §3, §4, §5

| Compound | EC50 (SK-MEL-5) [µM] | EC50 (SK-MEL-28) [µM] | EC50 (MOLM-14 [1]) [µM] | EC50 (MV4-11) [µM] | EC50 (KG-1) [µM] | viability at 10 µM (MOLM-14 [2]) [%] | viability at 10 µM (HCT-116 [3]) [%] | viability at 10 µM (A375) [%] | EC50 (HCT-116 [5]) [µM] | EC50 (A-375) [µM] | EC50 (Colo205) [µM] | EC50 (HT-29) [µM] | EC50 (HepG2) [µM] | further results |
| --- | --- | --- | --- | --- | --- | --- | --- | --- | --- | --- | --- | --- | --- | --- |
| COc1cccc2c1C(=O)c1c(O)c3c(c(O)c1C2=O)C[C@@](O)(C(=O)CO)C[C@@H]3O[C@H]1C[C@H](N)[C@H](O)[C@H](C)O1 [Doxorubicine, doxorubicin] | – | – | – | – | – | – | – | – | – | – | – | – | – | EC50 (B16F10): 0.2 µM |
| CC(C)(C)NC1CCN(c2cc(-c3ccc(Cl)c(Cl)c3)nc3ccccc23)CC1 [XIV-8, 2-(3,4-dichloro-phenyl)-4-(4-N-tert-butylamino-piperidin-1-yl)quinoline dihydrochloride] | 6 | 4 | 5 | 4 | 4 | < 20 | < 20 | < 20 | 5 | 6 | – | – | – | EC50 ([4]; Patient 3, subtype Tri8): 8 µM; EC50 ([4]; Patient 8, subtype FLT3−): 25 µM; EC50 ([4]; Patient 9, subtype FLT3+): 40 µM; EC50 ([4]; Patient 10, subtype Inv 3): 20 µM; EC50 ([4]; Patient 12, subtype 5 & 7): > 40 µM; EC50 ([4]; Patient 13, subtype MLL): > 40 µM; EC50 ([4]; Patient 16, subtype Inv 3): 17 µM; EC50 ([6]; PBMC Healthy voluntary donor 1): 31 µM; EC50 ([6]; PBMC Healthy voluntary donor 2): 14 µM |
| CCN(CC)C1CCN(C(C)c2cc(-c3ccccc3)nc3ccccc23)CC1 (stereo not shown) [XIX-2, 2-phenyl-4-{1-[4-(N,N-diethylamino)-piperidin-1-yl]-eth-1-yl}quinoline] | – | – | – | – | – | – | – | – | – | – | – | – | – | Concentration of XIX-2 in nanoparticules dispersion ([7]; PLGA-PLGAPEG (70/30, w/w) nanoparticules, HPLC): 3210 µM; Loading ([7]; PLGA-PLGAPEG nanoparticules, [XIX-2 encapsulated/PLGA-PLGAPEG used] × 100): 2.5%; Encapsulation efficiency ([7]; PLGA-PLGAPEG nanoparticules; [XIX-2 used − XIX-2 nonencapsulated)/XIX-2 used] × 100): 9.4% |
| Clc1ccc2c(NC3CCN(Cc4ccccc4)CC3)cc(-c3ccccc3)nc2c1 [XXVIII-2, 7-chloro-2-phenyl-4-[(N-benzylpiperidin-4-yl)-amino]quinoline hydrochloride salt] | 9 | 7 | 10 | 5 | 10 | < 20 | < 20 | < 20 | 12 | 9 | 9 | 13 | 26 | – |
| Clc1ccc2c(CNC3CCN(Cc4ccccc4)CC3)cc(-c3ccccc3)nc2c1 [XXXIII-2, 7-chloro-2-phenyl-4-[(N-benzyl-piperidin-4-yl)aminomethyl]quinoline hydrochloride salt] | 6 | 6 | 9 | 5 | 8 | 40 to 60 | 20 to 40 | 40 to 60 | 13 | 9 | 9 | 14 | 16 | – |
